The values that follow come from PMC9476706, “Integrating pharmacokinetics and network analysis to investigate the mechanism of Moutan Cortex in blood-heat and blood stasis syndrome” (Chinese Medicine, 2022).

Data set [1] concerns APTT. Set-up: method as in doi:10.5246/jcps.2018.09.062. As to conditions: cited from earlier work.
Data set [2] can be described thus: Pharmacokinetic study of nine absorbed components in rat serum after oral RMC extract (UHPLC-DAD).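 On all read-outs here: BHS model made by subcutaneous yeast suspension then two adrenaline injections with ice-water immersion, normal rats given saline instead, serum analytes quantified by UHPLC-DAD at 254 nm.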 Conditions: for AUC / Cmax / MRT / half-life / Tmax: male, Sprague-Dawley, rat, serum, po, 10 mL/kg, oral RMC extract 10 mL/kg (equal to 6 g/mL of RMC) once a day for 7 days, n = 6; for time after which the compound was not detected: BHS-RMC rats.
Protocol: Twenty-four male Sprague–Dawley rats (weighing 300 ± 20 g) were purchased from Animal Experiment Center, Guangdong Academy of Medical Sciences (Certificate no. SCXK2013-0002). The rats were kept in an environmentally controlled breeding room at a temperature of 22 ± 2 °C and a relative humidity of 55 ± 10% for 1 week before starting the experiments. They were fed with standard laboratory food and water. Both the animal’s care and the study protocol were conducted according to the National Institutes of Health Guide for the Care and Use of Laboratory Animals, and followed the guidelines of the Ethics Committee of Guangdong Pharmaceutical University.
The rats were randomly divided into following four groups: normal groups (Normal groups), BHS model groups (BHS groups), normal group administrated with RMC extraction (N-RMC group), BHS group administrated with RMC extraction (BHS-RMC group), respectively. N-RMC group and BHS-RMC group rats were respectively orally administrated with RMC extraction (equal to 6 g/mL of RMC) for continuous 7 days at a dose of 10 mL/kg, once a day, 1 hour after the sixth day of administration. The rats in BHS groups and BHS-RMC group were subcutaneously injected with 10% aqueous suspension of yeast (10 mL/kg) and then subcutaneously injected with 0.1 mg/mL adrenaline hydrochloride solution twice (at a dose of 0.8 mL/kg, 4 h apart) while body temperature remained relatively steady high. Those rats were soaked in ice-water for 5 min keeping their heads outside surface between two subcutaneous injections of adrenaline hydrochloride solution [39, 40]. At the same time, the normal groups and N-RMC group rats were injected with the same dose of saline (10 mL/kg) subcutaneously. All rats were fasted for 12 h but free for water before taking the blood. On the seventh day, 0.3 mL blood samples were collected from fossa orbitalis vein at the time point of 0.083, 0.25, 0.5, 0.75, 1, 2, 3, 4, 6, 8, 10, 12 and 24 h after oral administration. All blood samples were immediately centrifuged at 13,680 (× g) for 10 min at 4 °C and the serum samples were obtained and stored at −80 °C until analysis.
Firstly, 100 μL serum was spiked with 10 μL IS working solution to mix evenly, then 1 mL methanol was added to protein precipitation, and centrifuged at 1520 (× g) for 10 min at 4 °C. Secondly, the supernatant was collected with a clean tube carefully and filtered through 0.22 μm microporous filter head. Thirdly, the filtrate was evaporated to dryness under a stream of nitrogen at 40 °C. Finally, the residue was dissolved in 100 μL methanol and 10 μL of aliquot was injected into UHPLC-DAD system for analysis.
The chromatography experiment was carried out using UPLC system (Thermo Fisher Scientific, USA). Chromatographic conditions were according to the paper published by our research group [37]. Column: Acquity UPLC® BEH Shield RP18 Column (2.1 mm × 100 mm, 1.7 μm, Waters, USA). The column temperature was maintained at 30 °C. Mobile phase: Acetonitrile (A) and 0.1% (v/v) formic acid in water (B). The gradient conditions: 0–10 min, 5–15% A; 10–20 min, 15–35% A; 20–30 min, 35–95% A; 30–32 min, 95% A. The samples were kept at 4 °C in the auto-sampler. Flow rate and sample size, 0.2 mL/min and 2 μL; column temperature and detection wavelength, 30 °C and 254 nm.
The concentrations of nine components of all samples were processed by PKSolver pharmacokinetics software. Statistical comparisons among groups were performed with GraphPad Prism 8 using a One-Way ANOVA analysis. Data expressed as mean ± SD and a p value ≤ 0.05 was considered to be statistically significant.
Data set [3] deals with F2. Kind of data set: F2 expression in TNF-α induced HUVECs (ELISA, RT-qPCR). It counts as cell-based, Human. Conditions: HUVECs + 25 ng/mL TNF-α, 8 h, versus model group; for F2 protein expression: paeonol 50, paeoniflorin 500, quercetin 1, oxypaeoniflorin 500 μg/mL. How it is done: (§1) After three or four passages, the HUVECs were digested with 0.25% trypsin and seeded in a 6-well plate with a density of 1 × 10^5 cells/mL for ELISA analysis and RT-qPCR. […] Afterwards, take the supernatant and measure according to the ELISA kit, and detect the OD value at the wavelength of 450. […] ChamQTMUniversalSYBR qPCR Master Mix (Vazyme Biotech Co., Ltd, Q711-02) was performed on a Real-time PCR System.
A general note: An ELISA detects its analyte on a solid surface through an enzyme-linked reagent.

Data set [4] has as its system F7. Nature of the data set: F7 expression in TNF-α induced HUVECs (ELISA, RT-qPCR). Type of data set: cell-based, Human. Conditions: HUVECs + 25 ng/mL TNF-α, 8 h, versus model group; for F7 protein expression: paeonol 50, paeoniflorin 500, quercetin 1, oxypaeoniflorin 500 μg/mL. As for the experimental part:
as §1

In data set [5] the test system is F10. Nature of the data set: F10 expression in TNF-α induced HUVECs (ELISA, RT-qPCR). Type of data set: cell-based, Human. Conditions: HUVECs + 25 ng/mL TNF-α, 8 h; paeonol 50, paeoniflorin 500, quercetin 1, oxypaeoniflorin 500 μg/mL; versus model group. As for the experimental part: as §1
Data set [6] relates to MAPK10. Kind of data set: MAPK10 mRNA expression in TNF-α induced HUVECs (RT-qPCR). It counts as cell-based, Human. Conditions: HUVECs + 25 ng/mL TNF-α, 8 h, paeonol 50, paeoniflorin 500, quercetin 1, oxypaeoniflorin 500 μg/mL, versus model group. As for the experimental part:
as §1
Background: In qPCR the cycle at which signal appears reflects the starting amount.

The subject of data set [7] is APTT, PT and TT. Kind of data set: Coagulation test (APTT, PT, TT) in rabbit plasma. Conditions: for APTT: 10 μL solution, paeoniflorin 250, oxypaeoniflorin 500, quercetin 1, paeonol 50 μg/mL, blank 13.63 ± 0.49, n = 3; for effect on PT compared with blank / effect on TT compared with blank / effect on prolonging APTT compared with blank: in words.
Protocol: New Zealand white rabbits, after being fasted but with free access to water for 8 h, were anesthetized by intraperitoneal injection of 10.0% chloral hydrate at 0.3 mL/100 g. The blood collected from the carotid artery was anticoagulated with 3.8% sodium citrate (blood and dosage volume ratio of 9:1), and transferred to a vacuum blood-collection tube, which was then slowly inverted and mixed for 3 to 4 times, and centrifuged at 860 (× g) for 10 min to obtain the supernatant. […] Whereafter, 10 μL of monomer solution was added under the kit instructions to determine APTT, PT and TT using coagulation method.
The test system of data set [8] is AKT. Nature of the data set: AKT expression in TNF-α induced HUVECs (RT-qPCR). Type of data set: cell-based, Human. As to conditions: HUVECs + 25 ng/mL TNF-α, 8 h, oxypaeoniflorin 500 μg/mL, versus model group. How it is done:
as §1

[9] abbreviates: BHS-RMC versus N-RMC rats, oral RMC extract.
[10] abbreviates: T1/2, BHS-RMC group (BHS model rats).
Where [11] appears, read: T1/2, N-RMC group (normal rats).

Take `Cc1oc2c(O)cccc2c(=O)c1O` [3,8-Dihydroxy-2-methylchromone, 3,8-dihydroxy-2-methylchromone]: in data set [1], the “effect on APTT” value is reported as “significantly extend”. Besides, the “Cmax increase in BHS-RMC over N-RMC” value in data set [2] (setting [9]) is 16%. Also, in data set [2] (BHS-RMC group (BHS model rats)), the AUC turned out to be 757 ± 8.72 µg·h/mL, the Cmax came out at 134 ± 3.26 µg/mL, the MRT came out at 14.1 ± 1.07 h and the time to peak (Tmax) is 0.75 h. Besides, in data set [2] (N-RMC group (normal rats)), the AUC came to 660 ± 29.9 µg·h/mL, the Cmax was 116 ± 2.12 µg/mL, the mean residence time (MRT) was 6.9 ± 0.68 h and the Tmax was found to be 0.75 h. Moreover, the half-life in data set [2] (setting [10]) is 19 ± 1.78 h. Moreover, the half-life in data set [2] (setting [11]) was 4.73 ± 0.29 h.

For the compound `O=Cc1ccc(CO)o1` [5-HMF, 5-hydroxymethylfurfural], in data set [2] (BHS-RMC group (BHS model rats)), the AUC is 741 ± 20.3 µg·h/mL, the concentration peaked (Cmax) at 111 ± 7.25 µg/mL, the mean residence time MRT turned out to be 7.47 ± 0.48 h and the Tmax turned out to be 0.75 h. Further, in data set [2] (N-RMC group (normal rats)), the AUC amounted to 1564 ± 4.63 µg·h/mL, the peak level (Cmax) was 413.2 ± 2.01 µg/mL, the MRT was determined as 4.55 ± 0.03 h and the Tmax amounted to 3 h. The compound further showed a half-life in data set [2] (setting [10]) of 7.33 ± 2.1 h. In data set [2] (setting [11]), the half-life is 3.2 ± 0.03 h.

Consider `O=C(O)c1ccccc1` [Benzoic acid, benzoic acid], for which the “Cmax increase in BHS-RMC over N-RMC” value in data set [2] (setting [9]) worked out at 49%. In addition, in data set [2] (BHS-RMC group (BHS model rats)), the AUC is 2320 ± 71.3 µg·h/mL, the peak level (Cmax) was 213 ± 5.26 µg/mL, the MRT is 13.3 ± 0.79 h and the Tmax is 3 h. Also, in data set [2] (N-RMC group (normal rats)), the AUC is 1880 ± 217 µg·h/mL, the highest level (Cmax) was 144 ± 4.48 µg/mL, the MRT was determined as 17 ± 2.76 h and the Tmax amounted to 4 h.

Consider `O=C(O)c1cc(O)c(O)c(O)c1` [Gallic acid, gallic acid], for which, in data set [2] (setting [9]), the “AUC increase in BHS-RMC over N-RMC” value is 5% and the “Cmax increase in BHS-RMC over N-RMC” value is listed as 42%. Further, in data set [2] (BHS-RMC group (BHS model rats)), the area under the curve (AUC) was determined as 1070 ± 72.9 µg·h/mL, the Cmax amounted to 180 ± 11.1 µg/mL, the MRT turned out to be 10 ± 0.96 h and the time of peak concentration (Tmax) turned out to be 1 h. Also, in data set [2] (N-RMC group (normal rats)), the exposure (AUC) was found to be 1020 ± 26.6 µg·h/mL, the Cmax is 127 ± 2.9 µg/mL and the mean residence time (MRT) was found to be 17.3 ± 0.8 h. This compound had a half-life in data set [2] (setting [10]) of 6.33 ± 0.45 h. For the same compound, the half-life in data set [2] (setting [11]) is 10.8 ± 0.87 h.

Regarding `COC(=O)c1ccc(O)cc1` [Methylparaben, methyl paraben], in data set [2] (BHS-RMC group (BHS model rats)), the AUC was 39.9 ± 1.34 µg·h/mL, the highest level (Cmax) was 2.16 ± 0.11 µg/mL, the mean residence time MRT turned out to be 27.1 ± 1.16 h and the time to peak (Tmax) was 1 h. Further, in data set [2] (N-RMC group (normal rats)), the exposure (AUC) was found to be 22.8 ± 1.34 µg·h/mL, the concentration peaked (Cmax) at 6.35 ± 0.53 µg/mL, the MRT amounted to 7.91 ± 0.56 h and the Tmax is 0.75 h. The compound also gave a half-life in data set [2] (setting [10]) of 17.9 ± 0.84 h. Further, the half-life in data set [2] (setting [11]) is 4.93 ± 0.23 h.

Consider `C[C@@]12C[C@@]3(O)O[C@@H](O1)[C@]1(COC(=O)c4ccccc4)[C@H]3C[C@@]12O[C@@H]1O[C@H](CO)[C@@H](O)[C@H](O)[C@H]1O` [Paeoniflorin, paeoniflorin], for which the F2 protein expression entry in data set [3] is recorded as “significantly declined”. Further, the F7 protein expression entry in data set [4] was “significantly declined”. The F10 protein expression entry in data set [5] is listed as “significantly declined”. The “MAPK10 mRNA expression” value in data set [6] is listed as “significant decrease”. Further, in data set [7], the APTT is reported as 15.07 ± 0.06 s, the “effect on PT compared with blank” value is given as “no significant difference”, the “effect on TT compared with blank” value is reported as “tendency of prolonging” and the “effect on prolonging APTT compared with blank” value is recorded as “significant effect”. Also, in data set [2] (oral RMC extract), the “time after which the compound was not detected” value is on record as 12 h. In addition, in data set [2] (BHS-RMC group (BHS model rats)), the area under the curve (AUC) stood at 298 ± 7.6 µg·h/mL, the concentration peaked (Cmax) at 84.2 ± 1.99 µg/mL, the mean residence time MRT was 5.06 ± 0.22 h and the time to peak (Tmax) amounted to 0.75 h. For the same compound, in data set [2] (N-RMC group (normal rats)), the exposure (AUC) amounted to 1450 ± 62.3 µg·h/mL, the concentration peaked (Cmax) at 201.6 ± 1.86 µg/mL and the mean residence time MRT came to 15.5 ± 0.94 h. Moreover, in data set [2] (setting [10]), the half-life was 3.6 ± 0.31 h. In data set [2] (setting [11]), this compound gave a half-life of 9.75 ± 0.47 h.

As for `COc1ccc(C(C)=O)c(O)c1` [Paeonol, paeonol], the “F2 mRNA expression” value in data set [3] (paeonol 50 μg/mL, RT-qPCR) was “no effects”. Moreover, in data set [3], the F2 protein expression entry is “significantly declined”. Besides, in data set [4] (paeonol 50 μg/mL, RT-qPCR), the “F7 mRNA expression” value was “no effects”. For the same compound, in data set [4], the F7 protein expression entry is on record as “significantly declined”. Moreover, the F10 protein expression entry in data set [5] is “significantly declined”. In addition, in data set [6], the “MAPK10 mRNA expression” value was “significant decrease”. Also, in data set [7], the APTT came to 17.23 ± 0.35 s, the “effect on PT compared with blank” value is “no significant difference”, the “effect on TT compared with blank” value is given as “tendency of prolonging” and the “effect on prolonging APTT compared with blank” value is recorded as “significant effect”. Moreover, the “time after which the compound was not detected” value in data set [2] (oral RMC extract) is 8 h. Besides, in data set [2] (BHS-RMC group (BHS model rats)), the exposure (AUC) is 45.5 ± 0.83 µg·h/mL, the peak concentration (Cmax) amounted to 10.4 ± 0.23 µg/mL, the MRT came out at 4.63 ± 0.12 h and the time of peak concentration (Tmax) was 0.75 h. In data set [2] (N-RMC group (normal rats)), the AUC worked out at 107 ± 1.23 µg·h/mL, the peak level (Cmax) was 11.8 ± 0.13 µg/mL, the mean residence time MRT amounted to 12.1 ± 0.17 h and the Tmax stood at 0.75 h. The half-life in data set [2] (setting [10]) was 4.37 ± 0.15 h. For the same compound, the half-life in data set [2] (setting [11]) is 7.84 ± 0.08 h. Also, the “shape of plasma concentration-time profile” value in data set [2] (oral RMC extract, both normal and model rats) was “bimodal (double peak) phenomenon”.

With `O=c1c(O)c(-c2ccc(O)c(O)c2)oc2cc(O)cc(O)c12` [Quercetin, quercetin], in data set [3], the F2 protein expression result was “significantly declined”. Further, the F7 protein expression entry in data set [4] is reported as “significantly declined”. Also, in data set [5], the F10 protein expression result is “significantly declined”. Moreover, the “MAPK10 mRNA expression” value in data set [6] is reported as “significant decrease”. Besides, in data set [7], the APTT is 15.2 ± 0.387 s, the “effect on PT compared with blank” value was “no significant difference”, the “effect on TT compared with blank” value is “tendency of prolonging” and the “effect on prolonging APTT compared with blank” value is “significant effect”. Moreover, in data set [2] (setting [9]), the “Cmax increase in BHS-RMC over N-RMC” value came out at 15%. In data set [2] (BHS-RMC group (BHS model rats)), the AUC was found to be 10000 µg·h/mL, the peak level (Cmax) was 739.9 ± 4.17 µg/mL, the MRT stood at 20.4 ± 0.66 h and the Tmax stood at 4 h. Further, in data set [2] (N-RMC group (normal rats)), the AUC is 7340 ± 166 µg·h/mL, the maximum concentration (Cmax) worked out at 643 ± 19.8 µg/mL, the MRT is 16.6 ± 0.56 h and the time to peak (Tmax) came to 4 h. The compound also showed a half-life in data set [2] (setting [10]) of 15.5 ± 0.54 h. For the same compound, the half-life in data set [2] (setting [11]) was 9.97 ± 0.35 h.

With oxypaeoniflorin, the F7 protein expression entry in data set [4] is reported as “significantly declined”. For the same compound, the F10 protein expression entry in data set [5] is listed as “significantly declined”. Also, the “MAPK10 mRNA expression” value in data set [6] is “significant decrease”. Moreover, the “expression of AKT” value in data set [8] is “could decrease”. Also, in data set [7], the APTT is on record as 15.63 ± 0.45 s, the “effect on PT compared with blank” value is on record as “no significant difference”, the “effect on TT compared with blank” value was “tendency of prolonging” and the “effect on prolonging APTT compared with blank” value is recorded as “significant effect”.

What is called AUC is the area under the concentration-time curve, a measure of exposure. Higher therefore signals high exposure. As usually defined, the Cmax is the peak of the concentration-time curve. As usually defined, the MRT is the average time that molecules of a dose stay in the body. The term half-life denotes how long it takes for the measured level to halve. Higher therefore signals slow loss. As usually defined, the Tmax is the time from dosing to the highest level.
